From ChEMBL document CHEMBL4257490, “Development of a peptide-based bifunctional chelator conjugated to a cytotoxic drug for the treatment of melanotic melanoma” (Medchemcomm, 2018)
Activity calls are given as the source filed them. No cut-off for these calls is given here. Residues, ends and D or L forms follow the SMILES beside them. *: point of attachment. X1 = O=c1nc(N*)ccn1[C@@H]1O[C@H](CO)[C@@H](O)C1(F)F

Columns and labels:
[1] = Drug uptake in mouse B16F10 cells using 5,6-carboxyfluorescein-labeled compound at 20 ug/ml after 4 hrs by DAPI staining-based fluorescence microscopic method; assay type: ADME, cell-based; details: b16-f10, 4 h
B16-F10 [2] = assay: Ratio of drug uptake in mouse B16F10 cells at 20 ug/ml after 4 hrs by flow cytometric method to drug uptake in mouse B16F10 cells at 20 ug/ml after 30 mins by flow cytometric method; assay type: ADME, cell-based
[3] = Hemolytic activity in rat erythrocytes up to 50 uM after 1 hr relative to control; assay type: ADME, cell-based, Erythrocyte; details: read-out: Activity
[4] = Hemolytic activity in rat erythrocytes at 100 uM after 1 hr relative to control; assay type: ADME, cell-based, Erythrocyte; details: read-out: Activity
[5] = Stability in saline assessed as parent compond remaining using 99mTc(CO)3-labeled compound after 24 hrs by TLC method; assay type: physicochemical; details: read-out: Stability
[6] = Metabolic stability in rat serum assessed as parent compound remaining using 99mTc(CO)3-labeled compound after 24 hrs by TLC method; assay type: ADME, cell-free; details: read-out: Stability
[7] = Drug degradation in histidine solution using 99mTc(CO)3-labeled compound after 24 hrs by TLC method; assay type: physicochemical; details: read-out: Drug degradation
[8] = n-Octanol-phosphate buffer partition co-efficient, log P of 99mTc(CO)3-labeled compound at 2 to 3 KBq after 1 min by gamma scintillation counting method; assay type: physicochemical
[9] = Drug uptake in mouse B16F10 cells using 99mTc(CO)3-labeled compound at 15 to 20 MBq/ml after 30 mins by gamma scintillation counting method relative to total added activity; assay type: ADME, cell-based; details: b16-f10, 0.5 h
[10] = Drug uptake in mouse B16F10 cells using 99mTc(CO)3-labeled compound at 15 to 20 MBq/ml after 240 mins by gamma scintillation counting method relative to total added activity; assay type: ADME, cell-based; details: b16-f10, 4 h
[11] = Drug uptake in mouse B16F10 cells using 99mTc(CO)3-labeled compound at 15 to 20 MBq/ml after 30 mins by gamma scintillation counting method; assay type: ADME, cell-based; details: b16-f10, 0.5 h
[12] = Drug uptake in heart of Balb/c mouse allografted with mouse B16F10 cells using 99mTc(CO)3-labeled compound at 10 to 12 MBq/kg, iv measured at 2 hrs; assay type: ADME, organism-based; details: in vivo
[13] = Drug uptake in blood of Balb/c mouse allografted with mouse B16F10 cells using 99mTc(CO)3-labeled compound at 10 to 12 MBq/kg, iv measured at 2 hrs; assay type: ADME, organism-based; details: in vivo
[14] = Drug uptake in liver of Balb/c mouse allografted with mouse B16F10 cells using 99mTc(CO)3-labeled compound at 10 to 12 MBq/kg, iv measured at 2 hrs; assay type: ADME, organism-based; details: in vivo
[15] = Drug uptake in lung of Balb/c mouse allografted with mouse B16F10 cells using 99mTc(CO)3-labeled compound at 10 to 12 MBq/kg, iv measured at 2 hrs; assay type: ADME, organism-based; details: in vivo
[16] = Drug uptake in spleen of Balb/c mouse allografted with mouse B16F10 cells using 99mTc(CO)3-labeled compound at 10 to 12 MBq/kg, iv measured at 2 hrs; assay type: ADME, organism-based; details: in vivo
[17] = Drug uptake in muscle of Balb/c mouse allografted with mouse B16F10 cells using 99mTc(CO)3-labeled compound at 10 to 12 MBq/kg, iv measured at 2 hrs; assay type: ADME, organism-based, Muscle tissue; details: in vivo
[18] = Drug uptake in tumor muscle of Balb/c mouse allografted with mouse B16F10 cells using 99mTc(CO)3-labeled compound at 10 to 12 MBq/kg, iv measured at 2 hrs; assay type: ADME, organism-based; details: in vivo
[19] = Drug uptake in kidney of Balb/c mouse allografted with mouse B16F10 cells using 99mTc(CO)3-labeled compound at 10 to 12 MBq/kg, iv measured at 2 hrs; assay type: ADME, organism-based; details: in vivo
[20] = Drug uptake in intestine of Balb/c mouse allografted with mouse B16F10 cells using 99mTc(CO)3-labeled compound at 10 to 12 MBq/kg, iv measured at 2 hrs; assay type: ADME, organism-based; details: in vivo
[21] = Drug uptake in stomach of Balb/c mouse allografted with mouse B16F10 cells using 99mTc(CO)3-labeled compound at 10 to 12 MBq/kg, iv measured at 2 hrs; assay type: ADME, organism-based; details: in vivo
[22] = Drug uptake in urine of Balb/c mouse allografted with mouse B16F10 cells using 99mTc(CO)3-labeled compound at 10 to 12 MBq/kg, iv measured at 2 hrs; assay type: ADME, organism-based; details: in vivo
[23] = Ratio of drug level in tumor to blood of Balb/c mouse allografted with mouse B16F10 cells using 99mTc(CO)3-labeled compound at 10 to 12 MBq/kg, iv measured at 2 hrs; assay type: ADME, organism-based, Tumor/tissue
[24] = Ratio of drug level in tumor to muscle of Balb/c mouse allografted with mouse B16F10 cells using 99mTc(CO)3-labeled compound at 10 to 12 MBq/kg, iv measured at 2 hrs; assay type: ADME, organism-based, Tumor/tissue; details: in vivo
[25] = Drug uptake in heart of Balb/c mouse allografted with mouse B16F10 cells using 99mTc(CO)3-labeled compound at 10 to 12 MBq/kg, iv measured at 4 hrs; assay type: ADME, organism-based; details: in vivo
[26] = Drug uptake in blood of Balb/c mouse allografted with mouse B16F10 cells using 99mTc(CO)3-labeled compound at 10 to 12 MBq/kg, iv measured at 4 hrs; assay type: ADME, organism-based; details: in vivo
[27] = Drug uptake in liver of Balb/c mouse allografted with mouse B16F10 cells using 99mTc(CO)3-labeled compound at 10 to 12 MBq/kg, iv measured at 4 hrs; assay type: ADME, organism-based; details: in vivo
[28] = Drug uptake in lung of Balb/c mouse allografted with mouse B16F10 cells using 99mTc(CO)3-labeled compound at 10 to 12 MBq/kg, iv measured at 4 hrs; assay type: ADME, organism-based; details: in vivo
[29] = Drug uptake in spleen of Balb/c mouse allografted with mouse B16F10 cells using 99mTc(CO)3-labeled compound at 10 to 12 MBq/kg, iv measured at 4 hrs; assay type: ADME, organism-based; details: in vivo
[30] = Drug uptake in muscle of Balb/c mouse allografted with mouse B16F10 cells using 99mTc(CO)3-labeled compound at 10 to 12 MBq/kg, iv measured at 4 hrs; assay type: ADME, organism-based, Muscle tissue; details: in vivo
[31] = Drug uptake in tumor muscle of Balb/c mouse allografted with mouse B16F10 cells using 99mTc(CO)3-labeled compound at 10 to 12 MBq/kg, iv measured at 4 hrs; assay type: ADME, organism-based; details: in vivo
[32] = Drug uptake in kidney of Balb/c mouse allografted with mouse B16F10 cells using 99mTc(CO)3-labeled compound at 10 to 12 MBq/kg, iv measured at 4 hrs; assay type: ADME, organism-based; details: in vivo
[33] = Drug uptake in intestine of Balb/c mouse allografted with mouse B16F10 cells using 99mTc(CO)3-labeled compound at 10 to 12 MBq/kg, iv measured at 4 hrs; assay type: ADME, organism-based; details: in vivo
[34] = Drug uptake in stomach of Balb/c mouse allografted with mouse B16F10 cells using 99mTc(CO)3-labeled compound at 10 to 12 MBq/kg, iv measured at 4 hrs; assay type: ADME, organism-based; details: in vivo
[35] = Drug uptake in urine of Balb/c mouse allografted with mouse B16F10 cells using 99mTc(CO)3-labeled compound at 10 to 12 MBq/kg, iv measured at 4 hrs; assay type: ADME, organism-based; details: in vivo
[36] = Ratio of drug level in tumor to blood of Balb/c mouse allografted with mouse B16F10 cells using 99mTc(CO)3-labeled compound at 10 to 12 MBq/kg, iv measured at 4 hrs; assay type: ADME, organism-based, Tumor/tissue
[37] = Ratio of drug level in tumor to muscle of Balb/c mouse allografted with mouse B16F10 cells using 99mTc(CO)3-labeled compound at 10 to 12 MBq/kg, iv measured at 4 hrs; assay type: ADME, organism-based, Tumor/tissue; details: in vivo
[38] = Drug uptake in tumor of Balb/c mouse allografted with mouse B16F10 cells using 99mTc(CO)3-labeled compound at 4 to 8 MBq, iv measured at 4 hrs by scintigraphic imaging method; assay type: ADME, organism-based, Neoplasm; details: in vivo
B16-F10 [39] = assay: Cytotoxicity against mouse B16F10 cells assessed as decrease in cell viability after 72 hrs by MTT assay; assay type: functional, cell-based; details: B16-F10, 72 h
[40] = Drug uptake in kidney of Balb/c mouse allografted with mouse B16F10 cells using 99mTc(CO)3-labeled compound at 4 to 8 MBq, iv measured at 4 hrs by scintigraphic imaging method; assay type: ADME, organism-based; details: in vivo
[41] = Drug uptake in liver of Balb/c mouse allografted with mouse B16F10 cells using 99mTc(CO)3-labeled compound at 4 to 8 MBq, iv measured at 4 hrs by scintigraphic imaging method; assay type: ADME, organism-based; details: in vivo
[42] = Drug uptake in gastrointestinal tract of Balb/c mouse allografted with mouse B16F10 cells using 99mTc(CO)3-labeled compound at 4 to 8 MBq, iv measured at 4 hrs by scintigraphic imaging method; assay type: ADME, organism-based; details: in vivo
[43] = Drug uptake in urinary bladder of Balb/c mouse allografted with mouse B16F10 cells using 99mTc(CO)3-labeled compound at 4 to 8 MBq, iv measured at 4 hrs by scintigraphic imaging method; assay type: ADME, organism-based; details: in vivo
[44] = Drug uptake in mouse B16F10 cells using 99mTc(CO)3-labeled compound at 15 to 20 MBq/ml after 240 mins by gamma scintillation counting method; assay type: ADME, cell-based; details: b16-f10, 4 h
B16-F10 [45] = assay: Induction of apoptosis in mouse B16F10 cells at IC50 after 72 hrs by annexin V-FITC/propidium iodide staining-based flow cytometric method relative to control; assay type: functional
B16-F10 [46] = assay: Induction of apoptosis in mouse B16F10 cells assessed as necrotic cells at IC50 after 72 hrs by annexin V-FITC/propidium iodide staining-based flow cytometric method relative to control; assay type: functional
B16-F10 [47] = assay: Induction of apoptosis in mouse B16F10 cells assessed as nuclear fragmentation at IC50 after 72 hrs by DAPI staining-based fluorescence microscopic method; assay type: functional, cell-based
B16-F10 [48] = assay: Antitumor activity against mouse B16F10 cells allografted in Balb/c mouse assessed as tumor growth inhibition at 25 mg/kg, iv administered thrice weekly for 21 days starting on day 10 post tumor implantation relative to control; assay type: functional; details: read-out: TGI
Mus musculus = assay: Toxicity in mouse B16F10 cells allografted Balb/c mouse assessed as effect on body weight at 25 mg/kg, iv administered thrice weekly for 21 days starting on day 10 post tumor implantation (reference value: 30.52 +/- 2.9 g); assay type: organism-based; details: in vivo, 504 h

N=C(N)NCCC[C@H](NC(=O)[C@@H](N)Cc1cnc[nH]1)C(=O)NCC(=O)N[C@@H](CC(=O)Nc1ccn([C@@H]2O[C@H](CO)[C@@H](O)C2(F)F)c(=O)n1)C(N)=O (H-HRGD(X1)-NH2)
Drug uptake [1]: Active
Ratio (B16-F10 [2]): 1.8
hemolysis at 1 h [3]: 5 to 6%
hemolysis at 1 h, 100 µM [4]: 7 to 9%
remaining at 24 h [5]: ≥ 92%
remaining at 24 h [6]: ≥ 92%
degraded at 24 h [7]: 5%
logP at 1 min [8]: -1.77
Drug uptake [9]: 2.9%
Drug uptake [10]: 4.99%
Drug uptake [11]: 30.45%
Drug uptake [12]: 0.07 % ID/g
Drug uptake [13]: 1.13 %ID/ml
Drug uptake [14]: 16.89 % ID/g
Drug uptake [15]: 0.32 % ID/g
Drug uptake [16]: 0.44 % ID/g
Drug uptake [17]: 0.17 % ID/g
Drug uptake [18]: 0.82 % ID/g
Drug uptake [19]: 4.44 % ID/g
Drug uptake [20]: 7.9 % ID/g
Drug uptake [21]: 0.36 % ID/g
Drug uptake [22]: 53.11 %ID/ml
Kp at 2 h [23]: 0.72
Ratio [24]: 4.66
Drug uptake [25]: 0.05 % ID/g
Drug uptake [26]: 0.88 %ID/ml
Drug uptake [27]: 14.39 % ID/g
Drug uptake [28]: 0.2 % ID/g
Drug uptake [29]: 0.26 % ID/g
Drug uptake [30]: 0.17 % ID/g
Drug uptake [31]: 0.83 % ID/g
Drug uptake [32]: 3.24 % ID/g
Drug uptake [33]: 9.06 % ID/g
Drug uptake [34]: 0.26 % ID/g
Drug uptake [35]: 56.11 %ID/ml
Kp at 4 h [36]: 0.94
Ratio [37]: 4.89
Drug uptake [38]: Not Active
IC50 (B16-F10 [39]): 0.21 µM
Drug uptake [40]: Active
Drug uptake [41]: Active
Drug uptake [42]: Active
Drug uptake [43]: Active
Drug uptake [44]: 65%

Nc1ccn([C@@H]2O[C@H](CO)[C@@H](O)C2(F)F)c(=O)n1 [GEMCITABINE]
IC50 (B16-F10 [39]): 0.26 µM
Activity (B16-F10 [45]): 26%
Activity (B16-F10 [46]): 12 - 14%
Activity (B16-F10 [47]): Active
inhibition in vivo at 25 mg/kg (B16-F10 [48]): 37%
Activity (Mus musculus): 28.65 g
